Drawing on ChEMBL document CHEMBL1138294, “Design and development of water-soluble curcumin conjugates as potential anticancer agents” (J Med Chem, 2007), this text covers IC50 and Activity for one molecule.

The structures appear in SMILES notation. pIC50: −log10 of the molar value.

One test has as its system MIA PaCa-2. Put plainly: Cytotoxicity against human MIA PaCa2 cells. The format is functional, cell-based.
For test [1], the system named is PC-3. As to the kind of experiment: Cytotoxicity against human PC3 cells. The format is functional, cell-based.
Test [2] has as its system PC-3. Put plainly: Cytotoxicity against human PC3 cells at 20 uM. The format is functional.
The next test relates to BXPC-3. Put plainly: Cytotoxicity against human BxPC3 cells. It is filed as functional, cell-based.
The subject of test [3] is PC-3. As to the kind of experiment: Cytotoxicity against human PC3 cells at 10 uM. It is filed as functional.
For another test, the system named is LS174T. As to the kind of experiment: Cytotoxicity against human LS174T cells. The format is functional, cell-based.

Regarding `COc1cc(/C=C/C(=O)CC(=O)/C=C/c2ccc(O)c(OC)c2)ccc1O` [CURCUMIN], the negative logarithm of the IC50 (pIC50) with MIA PaCa-2 was 5.05; with PC-3 [1], 4.92; with BXPC-3, 5.54; in the test on LS174T, 5.19. In addition, the results for the Activity in the test on PC-3 [2] and with PC-3 [3] were 90% and 65%, respectively.
